Data reported in patent US20030004175A1, “1,3-oxathiolane nucleoside analogues” (BioChem Pharma Inc., priority 1990, published 2003).
Values after ≈ are worked out from the molar mass of the structure shown.

Columns and labels:
JM cells = assay: Cytotoxicity, viable cell count by trypan blue exclusion, JM cells; format: cell-based; settings: 5 days at 37° C.
Experimental: (§1) The cytotoxicites of the compounds of Example 2, the racemic compound (BCH-189; […] H9, JM, CEM, C8166 and U937. […] After incubation at 37° C. for 5 days, the viable cell count was determined by removing a sample of cell suspension and counting trypan blue excluding cells in a haemocytometer.

C8166 cells = assay: Cytotoxicity, viable cell count by trypan blue exclusion, C8166 cells; format: cell-based, human; settings: 5 days at 37° C.
Experimental: as §1

H9 cells = assay: Cytotoxicity, viable cell count by trypan blue exclusion, H9 cells; format: cell-based; settings: 5 days at 37° C.
Experimental: as §1

CEM cells = assay: Cytotoxicity, viable cell count by trypan blue exclusion, CEM cells; format: cell-based, human; settings: 5 days at 37° C.
Experimental: as §1

U937 cells = assay: Cytotoxicity, viable cell count by trypan blue exclusion, U937 cells; format: cell-based; settings: 5 days at 37° C.
Experimental: as §1

HIV-1 strain RF [1] = assay: Antiviral activity by inhibition of syncytium formation, CEM cells infected with HIV-1 RF; format: cell-based; settings: Human immunodeficiency virus 1, CCRF-CEM, read-out: 50% Antiviral Activity
Experimental: (§2) Antiviral activity of the compounds of Example 2 were determined against three strains of HIV-1 and one strain of HIV-2 in the following cell lines.
(§3) CEM cells, a human T-lymphoblastoid cell line, infected with HIV-1 strains RF and U455, or HIV-2 strain ROD.
(§4) Antiviral activities in C8166, JM, and CEM cells were determined by inhibition of syncytium formation (Tochikura et al Virology, 164, 542-546) and in MT-4 cells by inhibition of formazan conversion (Baba et al; (1987) Biochem Biophys Res Commun., 142, 128-134; Mossman (1983) J. Immun Meth; 65, 55-57). Antiviral activities were also determined by analysing the amount of HIV p24 antigen synthesised in the presence and absence of enantiomers.

HIV-1 strain U455 = assay: Antiviral activity by inhibition of syncytium formation, CEM cells infected with HIV-1 U455; format: cell-based; settings: Human immunodeficiency virus 1, CCRF-CEM, read-out: 50% Antiviral Activity
Experimental: as §2, §3, §4

HIV-1 strain RF [2] = assay: Inhibition of HIV p24 antigen synthesis, MT-4 cells, strain RF; format: cell-based; settings: Human immunodeficiency virus 1, MT4, read-out: 50% Inhibition HIV p24 Synthesis
Experimental: as §2
(§5) MT-4 cells, a human T-cell leukaemia cell line, infected with HIV-1 strain RF.
as §4

HIV-1 strain GB8 [3] = assay: Inhibition of HIV p24 antigen synthesis, JM cells, strain GB8; format: cell-based; settings: Human immunodeficiency virus 1, read-out: 50% Inhibition HIV p24 Synthesis
Experimental: as §2
(§6) JM cells, a semi-mature T-cell line derived from a patient with lymphoblastic leukaemia, infected with HIV-1 strain GB8.
as §4

HIV-1 strain RF [4] = assay: Inhibition of HIV p24 antigen synthesis, C8166 cells, strain RF; format: cell-based; settings: Human immunodeficiency virus 1, read-out: 50% Inhibition HIV p24 Synthesis
Experimental: as §2
(§7) C8166 cells, a human T-lymphoblastoid cell line, infected with HIV-1 strain RF.
as §4

HIV-2 strain ROD = assay: Antiviral activity by inhibition of syncytium formation, CEM cells infected with HIV-2 ROD; format: cell-based; settings: Human immunodeficiency virus 2, CCRF-CEM, read-out: 50% Antiviral Activity
Experimental: as §2, §3, §4

HIV-1 strain GB8 [5] = assay: Antiviral activity by inhibition of syncytium formation, JM cells infected with HIV-1 GB8; format: cell-based; settings: Human immunodeficiency virus 1, read-out: 50% Antiviral Activity
Experimental: as §2, §6, §4

HIV-1 strain RF [6] = assay: Antiviral activity by inhibition of syncytium formation, C8166 cells infected with HIV-1 RF; format: cell-based; settings: Human immunodeficiency virus 1, read-out: 50% Antiviral Activity
Experimental: as §2, §7, §4

HIV-1 strain RF [7] = assay: Antiviral activity by inhibition of formazan conversion, MT-4 cells infected with HIV-1 RF; format: cell-based; settings: Human immunodeficiency virus 1, MT4, Formazan assay, read-out: 50% Antiviral Activity
Experimental: as §2, §5, §4

CD4 cell lines = assay: Cytotoxicity (summary statement); format: cell-based
Experimental: Compounds for test were serially diluted from 100 μg/ml to 0.3 μg/ml (final concentrations) in 96 well microtitre plates. 3.6×10^4 cells were inoculated into each well of the plates including drug-free controls. After incubation at 37° C. for 5 days, the viable cell count was determined by removing a sample of cell suspension and counting trypan blue excluding cells in a haemocytometer.

| Structure (SMILES) | 50% Cytoxicity (JM cells) [µg/mL] | 50% Cytoxicity (C8166 cells) [µg/mL] | 50% Cytoxicity (H9 cells) [µg/mL] | 50% Cytoxicity (CEM cells) [µg/mL] | 50% Cytoxicity (U937 cells) [µg/mL] | IC50 (HIV-1 strain RF [1]) [µg/mL] | IC50 (HIV-1 strain U455) [µg/mL] | IC50 (HIV-1 strain RF [2]) [µg/mL] | IC50 (HIV-1 strain GB8 [3]) [µg/mL] | IC50 (HIV-1 strain RF [4]) [µg/mL] | IC50 (HIV-2 strain ROD) [µg/mL] | IC50 (HIV-1 strain GB8 [5]) [µg/mL] | IC50 (HIV-1 strain RF [6]) [µg/mL] | IC50 (HIV-1 strain RF [7]) [µg/mL] | cytotoxicity compared with the other enantiomer (CD4 cell lines) |
| --- | --- | --- | --- | --- | --- | --- | --- | --- | --- | --- | --- | --- | --- | --- | --- |
| Nc1ccn([C@@H]2CS[C@H](CO)O2)c(=O)n1 (racemic) [BCH-189, (±)-(cis)-4-Amino-1-(2-hydroxymethyl-1,3-oxathiolan-5-yl)-(1H)-pyrimidin-2-one] | 3.5 | 90 | 8 | 3 | 15 |  |  |  |  |  |  |  |  |  |  |
| Nc1ccn([C@H]2CS[C@@H](CO)O2)c(=O)n1 [(+)-enantiomer, (2S,cis)-4-amino-1-(2-hydroxymethyl-1,3-oxathiolan-5-yl)-(1H)-pyrimidin-2-one] | 1.5 | 35 | 2 | 1 | 4 | 0.07 (≈ 0.305 µM) | 0.006 (≈ 0.0262 µM) | 0.0008 (≈ 0.00349 µM) | 0.033 (≈ 0.144 µM) | 0.021 (≈ 0.0916 µM) | 0.045 (≈ 0.196 µM) | 0.03 (≈ 0.131 µM) | 0.05 (≈ 0.218 µM) | 0.28 (≈ 1.22 µM) |  |
| Nc1ccn([C@@H]2CS[C@H](CO)O2)c(=O)n1 [(−)-enantiomer, (−)-cis-4-Amino-1-(2-hydroxymethyl-1,3-oxathiolan-5-yl)-(1H)-pyrimidin-2-one] | 30 | >100 | >100 | >100 | >100 | 0.04 (≈ 0.174 µM) | 0.008 (≈ 0.0349 µM) | 0.0004 (≈ 0.00174 µM) | 0.016 (≈ 0.0698 µM) | 0.016 (≈ 0.0698 µM) | 0.055 (≈ 0.24 µM) | 0.05 (≈ 0.218 µM) | 0.01 (≈ 0.0436 µM) | 0.2 (≈ 0.872 µM) | considerably lower cytotoxicity |
